These are literature values, as cited in PMC5618191 (Toxins, 2017).

On the set-up of the data set: method as in PMID 26892719. The conditions noted are these: after three days of treatment; cited from earlier work.

`CC(C)[C@H]1C(=O)O[C@H](C(C)C)C(=O)N(C)[C@@H](C(C)C)C(=O)O[C@H](C(C)C)C(=O)N(C)[C@@H](C(C)C)C(=O)O[C@H](C(C)C)C(=O)N1C` [ENN B, enniatin B]: the Metabolites in mice result is “three phase I metabolites”.
